Test results published in publication PMC4549706, “Rational Design of Highly Potent and Slow-Binding Cytochrome bc1 Inhibitor as Fungicide by Computational Substitution Optimization” (Scientific Reports, 2015).
Read-outs that look alike come from different tables or passages of the source.

Experiments:
[1] = molecular target: T1, porcine succinate-cytochrome c reductase (SCR, the mixture of complex II and bc1) (Sus scrofa, UniProt P24964); assay: SCR activity, succinate-cytochrome c system (Assay 1); type: biochemical; settings: for ∆∆Gexp: Table S1, experimental binding free energy change vs compound 1; for ΔΔGexp: experimental binding free energy change relative to compound 1
T1 construct: T h e S C R f r o m p o r c i n e h e a r t; from tissue; host or cells: porcine heart
T1 sequence (P24964 whole entry, one chain of several): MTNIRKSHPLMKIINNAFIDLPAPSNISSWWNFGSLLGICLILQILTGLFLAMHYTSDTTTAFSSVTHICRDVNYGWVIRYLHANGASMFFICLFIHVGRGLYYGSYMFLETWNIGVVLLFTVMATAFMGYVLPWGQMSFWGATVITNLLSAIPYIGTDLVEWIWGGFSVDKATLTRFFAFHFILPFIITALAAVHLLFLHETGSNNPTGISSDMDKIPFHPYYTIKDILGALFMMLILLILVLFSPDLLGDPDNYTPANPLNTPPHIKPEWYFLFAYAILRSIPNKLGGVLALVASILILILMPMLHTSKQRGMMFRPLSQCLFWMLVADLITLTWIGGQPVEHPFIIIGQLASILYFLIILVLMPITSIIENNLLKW
Experimental: (§1) Figure 4 Slow-binding inhibition mechanism. (A,B) Effect of various concentrations of cytochrome c and compound 18 on the inhibition of SCR activity. Each reaction mixture contains 100 mM, pH 7.4), EDTA (0.3 mM), succinate (20 mM), SCR (0.1 nM), and indicated amounts of cytochrome c and compound 18. The assays were performed in the presence of (A) 18 (35 nM) and a specified amount of cytochrome c (1, 4 μM; 2, 8 μM; 3, 20 μM; and 4, 48 μM) or (B) cytochrome c (60 μM) and various concentrations of compound 18 (1, 0 nM; 2, 15 nM; 3, 20 nM; 4, 30 nM; 5, 40 nM; and 6, 50 nM). Experimental data are shown as coloured dots and theoretical values are represented as black solid lines. Insets: plots of Kobs against concentration of (A) cytochrome c and (B) compound 18. […] Each reaction mixture contains 100 mM, pH 6.5), EDTA (2 mM), lauryl maltoside (750 μM), oxidised cytochrome c (100 μM), SCR (0.05 nM), and indicated amounts of DBH2 and compound 18. Two representative sets of inhibitory assays were performed in the presence of (C) DBH2 (20 μM) and a specified amount of compound 18 (1, 20 nM; 2, 40 nM; 3, 60 nM; 4, 80 nM), or (D) DBH2 (120 μM) and a specified amount of compound 18 (1, 40 nM; 2, 80 nM; 3, 120 nM; 4, 180 nM). Insets: plots of Kobs against concentration of compound 18. (E) Plot of the apparent rate constant A against concentration of DBH2. Inset: Plot of 1/A against concentration of DBH2. (F) Plot of the apparent rate constant B against concentration of DBH2.
(§2) The porcine succinate-cytochrome c reductase (SCR, the mixture of complex II and bc1) was prepared essentially according to the previously reported method. The enzymatic activities of SCR, complex II, and bc1 complex were analyzed in respective reaction mixtures as reported previously. Kinetic analyses for the inhibition mechanism were performed as previously described. […]
(§3) inhibitory kinetics study of bc1 inhibitors 8. […]
(§4) synthesized compounds against bc1 complex were examined by SCR. As previously described 9, the combined activity of SCR can be determined by using succinate and cytochrome c as substrates (Assay 1). We also measured the activity of complex II by using succinate and 2,6-dichloroindophenol (DCIP) as substrates (Assay 2), or the activity of bc1 complex by using decylubiquinol (DBH2) and cytochrome c as substrates (Assay 3). […]
redA 10, was used to represent the enzyme concentration. The three redox reactions used in this study were summarized as follows.
Assay 1: succinate + cytochrome c3+ S C R fumarate + cytochrome c2+
Assay 2: succinate + DCIP complex II fumarate + DCIPH 2
Assay 3: DBH 2 + cytochrome c3+ bc1 complex DB + cytochrome c2+
All assays were performed at 23 °C. The enzymatic activity of SCR (Assay 1) was carried out in 1.8 mL of reaction mixture containing 100 mM PBS (pH 7.4), 0.3 mM EDTA, and indicated concentrations of succinate and oxidized cytochrome c (Sigma-Aldrich). The activity of succinate-ubiquinone reductase (complex II, Assay 2) was determined in essentially the same reaction mixture, except for the replacement of cytochrome c with DCIP (Alfa Aesar). […] DBH 2 was prepared through reduction of decylubiquinone by dithionite (Sigma-Aldrich) as previously described 11,12. The nonionic detergent LM was used to decrease the interfering non-enzymatic activity though it slightly […]

bc1 complex = molecular target: T2, bc1 complex (Sus scrofa, UniProt P24964); assay: bc1 complex activity, DBH2-cytochrome c system (Assay 3); type: biochemical, porcine
T2 construct: T h e S C R f r o m p o r c i n e h e a r t; from tissue; host or cells: porcine heart
T2 sequence (P24964 whole entry, one chain of several): as above
Experimental: Figure 3 Inhibitory kinetics of bc1 complex. (A) Chemical structures of AZ (azoxystrobin) and its analogues, compound 1 and compound 18. These compounds have a common pharmacophore structure: methoxyacrylate (MOA). […] Each reaction mixture contains phosphate buffered saline (PBS; 100 mM, pH 6.5), ethylenediaminetetraacetic acid (EDTA; 2 mM), lauryl maltoside (750 μM), oxidised cytochrome c (100 μM), SCR (0.05 nM), DBH2 (20–120 μM) and a specified amount of AZ (1, 0 nM; 2, 500 nM; 3, 1000 nM; 4, 2000 nM; 5, 3000 nM; and 6, 5000 nM). (C) Compound 1 is non-competitive with respect to cytochrome c. The reaction mixture contains 100 mM, pH 7.4), EDTA (0.3 mM), succinate (20 mM), SCR (0.1 nM), cytochrome c (1.13–15.6 μM), and a series of concentrations of compound 1 (1, 0 nM; 2, 10 nM; 3, 20 nM; 4, 40 nM; and 5, 60 nM). (D) Compound 1 is competitive with respect to DBH2. Each reaction mixture contains 100 mM, pH 6.5), EDTA (2 mM), lauryl maltoside (750 μM), oxidised cytochrome c (100 μM), SCR (0.05 nM), DBH2 (20–120 μM) and a specified amount of compound 1 (1, 0 nM; 2, 50 nM; 3, 100 nM; 4, 200 nM; 5, 300 nM; and 6, 500 nM).
as §1, §2, §3, §4
redA 10, was used to represent the enzyme concentration. The three redox reactions used in this study were summarized as follows. […]

[2] = test system: Sphaerotheca fuliginea (Schlecht.) Poll.; assay: In vivo fungus growth inhibitory rate at 200 mg/L, powdery mildew
Source text: Based on the above in vitro study, compounds with nanomolar and subnanomolar Ki values were selected from the total 21 newly synthezised compounds for further studies. Pesticide likeness, defined as a complex balance of various physicochemical properties and structure features, can evaluate whether a molecule is similar to the known pesticides. After the filtration of pesticide likeness, seven compounds were kept to adhere to our previously defined rules for pesticide-likeness including molecular weight (MW) ≤ 435 Da, ClogP ≤ 6, number of H-bond acceptors (HBA) ≤ 6, number of H-bond donors (HBD) ≤ 2, number of rotatable bonds (ROB) ≤ 9, and number of aromatic bonds (ARB) ≤ 17 (Table 1)[24]. […] Therefore, compound 18 was recognized as lead compound for subsequent studies.
(§5) [a] Compounds are named as “series number-site number plus substitution group number” a: -F, b: -Cl, c:
(§6) -Br, d: -NO2, e: -CH3, f: -CF3, g: -OCH3, h: -OH, i: -NH2, j: -COOH.
(§7) [b] Substitution number and group.
(§8) [c] CH is “series 1” and N is “series 2”. […]
(§9) Table S2 Fungus growth inhibitory rate of target compounds (200 mg/L).
(§10) Comp. No. R X Sphaerotheca fuliginea Pseudoperonospora cubensis

[3] = test system: Pseudoperonospora cubensis (Berk. et Curt.); assay: In vivo fungus growth inhibitory rate at 200 mg/L, downy mildew
Experimental: as §5, §6, §7, §8, §9, §10

[4] = Table S1, inhibition constant with bc1 complex, read-out: Ki

| SMILES | Ki [1] [nM] | ∆∆Gexp [1] [kcal/mol] | ΔΔGexp [1] [kcal/mol] | Ki [1, 4] [nM] | other results |
| --- | --- | --- | --- | --- | --- |
| CO/C=C(/C(=O)OC)c1ccccc1CSc1nc2ccccc2s1 [Compound 1, E-Methyl 2-(2-((benzo-thiazol-2-ylthio)methyl)phenyl)-3-methoxyacrylate] | 31.1 ± 0.9 | 0.00 | 0.00 |  | inhibition type with respect to cytochrome c ([1]; Assay 1, varied cytochrome c): non-competitive; Ki (bc1 complex): 96.5 ± 5.6 nM; inhibition type with respect to DBH2 (bc1 complex; Assay 3, varied DBH2): competitive; Ki in DBH2-cytochrome c system relative to Ki in succinate-cytochrome c system (bc1 complex; Assay 3 vs Assay 1): approximately 3 fold; melting point: 84 to 86 °C |
| CO/C=C(/C(=O)OC)c1ccccc1CSc1nc2c(F)cccc2s1 [Compound 2] |  | 0.09 |  | 35.9 ± 1.24 |  |
| CO/C=C(/C(=O)OC)c1ccccc1CSc1nc2c(Cl)cccc2s1 [Compound 3] |  | 0.47 |  | 68.5 ± 1.21 |  |
| CO/C=C(/C(=O)OC)c1ccccc1CSc1nc2cc(F)ccc2s1 [Compound 12] | 2.15 ± 0.23 | -1.58 | -1.58 |  | Fungus growth inhibitory rate, Sphaerotheca fuliginea [2]: 99%; Fungus growth inhibitory rate, Pseudoperonospora cubensis [3]: 90% |
| CO/C=C(/C(=O)OC)c1ccccc1CSc1nc2cc(Cl)ccc2s1 [Compound 13] | 0.69 ± 0.06 | -2.26 | -2.26 |  |  |
| CO/C=C(/C(=O)OC)c1ccccc1CSc1nc2cc([N+](=O)[O-])ccc2s1 [Compound 15] | 0.39 ± 0.02 | -2.60 | -2.60 |  |  |
| CO/C=C(/C(=O)OC)c1ccccc1CSc1nc2ccc(F)cc2s1 [Compound 22] | 3.97 ± 0.27 | -1.22 | -1.22 |  |  |
| CO/C=C(/C(=O)OC)c1ccccc1CSc1nc2ccc(Cl)cc2s1 [Compound 23] | 2.75 ± 0.01 | -1.44 | -1.44 |  |  |
| CO/C=C(/C(=O)OC)c1ccccc1CSc1nc2ccc(Br)cc2s1 [Compound 24] | 1.15 ± 0.4 | -1.96 | -1.96 |  |  |
| CO/C=C(/C(=O)OC)c1ccccc1CSc1nc2ccc(C)cc2s1 [Compound 26] | 1.15 ± 0.05 | -1.96 | -1.96 |  | Fungus growth inhibitory rate, Sphaerotheca fuliginea [2]: 81%; Fungus growth inhibitory rate, Pseudoperonospora cubensis [3]: 97% |
| CO/C=C(/C(=O)OC)c1ccccc1CSc1nc2ccc(C(F)(F)F)cc2s1 [Compound 27] | 0.81 ± 0.03 | -2.16 | -2.16 |  |  |
| CO/N=C(/C(=O)OC)c1ccccc1CSc1nc2c(F)cccc2s1 [Compound 42] |  | 0.97 |  | 160 ± 1.1 |  |
| CO/N=C(/C(=O)OC)c1ccccc1CSc1nc2c(Cl)cccc2s1 [Compound 43] |  | 0.77 |  | 114 ± 2.25 |  |
| CO/N=C(/C(=O)OC)c1ccccc1CSc1nc2cc(F)ccc2s1 [Compound 52] |  | -0.28 |  | 19.3 ± 1.32 |  |
| CO/N=C(/C(=O)OC)c1ccccc1CSc1nc2cc(Cl)ccc2s1 [Compound 53] | 2.84 ± 0.03 | -1.42 | -1.42 |  |  |
| CO/N=C(/C(=O)OC)c1ccccc1CSc1nc2cc([N+](=O)[O-])ccc2s1 [Compound 55] | 1.07 ± 0.12 | -2.00 | -2.00 |  |  |
| CO/N=C(/C(=O)OC)c1ccccc1CSc1nc2ccc(F)cc2s1 [Compound 62] |  | 0.55 |  | 78.3 ± 1.37 |  |
| CO/N=C(/C(=O)OC)c1ccccc1CSc1nc2ccc(Cl)cc2s1 [Compound 63] |  | -0.71 |  | 9.37 ± 1.24 |  |
| CO/N=C(/C(=O)OC)c1ccccc1CSc1nc2ccc(Br)cc2s1 [Compound 64] | 3.44 ± 0.03 | -1.31 | -1.31 |  |  |
| CO/N=C(/C(=O)OC)c1ccccc1CSc1nc2ccc([N+](=O)[O-])cc2s1 [Compound 65] |  | -0.08 |  | 27.3 ± 1.27 |  |
| CO/N=C(/C(=O)OC)c1ccccc1CSc1nc2ccc(C)cc2s1 [Compound 66] |  | -0.57 |  | 11.9 ± 1.08 |  |
